Series [1] has as its target T1, recombinant perforin (Mus musculus, UniProt P10820).
T1 sequence (P10820 21-554): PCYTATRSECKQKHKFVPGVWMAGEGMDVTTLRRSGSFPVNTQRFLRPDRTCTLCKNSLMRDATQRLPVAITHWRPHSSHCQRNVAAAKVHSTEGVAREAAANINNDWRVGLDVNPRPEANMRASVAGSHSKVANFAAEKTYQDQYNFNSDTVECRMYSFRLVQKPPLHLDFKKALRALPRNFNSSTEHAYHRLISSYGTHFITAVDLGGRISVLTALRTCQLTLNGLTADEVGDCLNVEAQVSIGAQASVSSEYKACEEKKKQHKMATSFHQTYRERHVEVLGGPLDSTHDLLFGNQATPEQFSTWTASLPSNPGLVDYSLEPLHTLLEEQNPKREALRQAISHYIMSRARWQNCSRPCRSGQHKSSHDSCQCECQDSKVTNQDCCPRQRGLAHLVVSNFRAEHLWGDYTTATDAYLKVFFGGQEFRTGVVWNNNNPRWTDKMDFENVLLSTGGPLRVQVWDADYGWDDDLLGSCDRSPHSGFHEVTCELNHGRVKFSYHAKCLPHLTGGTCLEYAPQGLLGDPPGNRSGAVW
Nature of the series: Inhibition of perforin-mediated lysis of Jurkat cells (51Cr release). The following applies: isolated perforin.
Description: The ability of the compounds to inhibit the lysis of nucleated (Jurkat T lymphoma) cells in the presence of 0.1% BSA, as measured by release of ^51Cr was measured. Jurkat target cells were labelled by incubation in medium with 100 µCi ^51Cr for one hour. The cells were then washed three times to remove unincorporated isotope and re-suspended at 1 x 10^5 cells per mL in RPMI buffer supplemented with 0.1% BSA. Each test compound was pre-incubated to concentrations of 20, 10, 5, 2.5 and 1.25 µM with recombinant perforin for 30 min with DMSO as a negative control. ^51Cr labelled Jurkat cells were then added and cells were incubated at 37 °C for 4 h. The supernatant was collected and assessed for its radioactive content on a gamma counter (Wallac Wizard 1470 automatic gamma counter). Each data point was performed in triplicate and an IC50 was calculated from the range of concentrations described to above.

A short description of series [2]: Solubility in water. The following applies: for solubility: water.
Series [3] is described as follows: Plasma stability, mouse plasma. Type of series: in vitro ADME. The note with it: % parent remaining at 24 h, 37 °C. The procedure: (§1) Preliminary stability studies were carried out by incubation in human or mouse plasma at 37 °C with the percentage parent remaining measured at 24 h (Table 2). […] In mouse plasma the ratio of open to closed is 50:50%, while in human plasma this shifts to 90:10 due to the strong affinity of human serum albumin for the ring-opened form.[20] It is likely that the same phenomenon is operating in the present case and while not necessarily an issue for mouse studies, will need to be addressed in future work.
(§2) Incubation method - Mouse (CD-1, male) and human (pooled) plasma pH was adjusted to 7.4 with either 1M phosphoric acid or sodium hydroxide. Plasma was spiked with 100 uM of test compounds and divided into two parts; one part was immediately transferred to -80 °C (control), and the second part was incubated at 37 °C at 24 h.
(§3) At the end of the study duration, samples were transferred to -80 °C until ready to analyse by HPLC-DAD. On the day of analysis, control and incubated samples were thawed on wet ice and mixed.
(§4) Sample treatment for HPLC - 20 uL of samples were mixed with 80 uL (1:4 v/v) ice cold acetonitrile to precipitate the plasma proteins, centrifuged at 13,000 rpm for 5 min to obtain the clear supernatant. The supernatant was diluted with 0.01% formic acid– water (1:2 v/v) and 50 uL was injected onto the HPLC system (Agilent).
(§5) Calculation: The % loss was calculated based on peak area using the following formula: (peak area time “0”- peak area time “24h”)/peak area time “0” multiplied by 100. % Remaining = 100 - % loss.

For series [4], the system named is perforin delivered by KHYG-1 NK cells. Nature of the series: KHYG-1 cytotoxicity assay: lysis of K562 target cells by KHYG-1 NK cells (51Cr release). It is filed as cell-based, human. The procedure: The compounds were then evaluated for their ability to block the effect of perforin delivered by whole KHYG-1 NK cells (Table 2). Employing whole NK cells is a more rigorous model of conditions in vivo than the use of isolated recombinant protein since effector cell identification of the labelled target cell and formation of an immune synapse are required for perforin release. […] After co-incubation of inhibitor with KHYG-1 NK cells in medium for 30 min at room temperature, ^51Cr-labelled K562 leukaemia target cells were added and cell lysis evaluated after 4 h incubation at 37 °C by measuring ^51Cr release. […] Viable and dead cells were counted and percent viability calculated based on total cell count (for further details see Supplementary data). […] For the purposes of this work, compounds are classified as toxic if NK cell viability falls below 70%. This is due to the importance of CTLs and NK cells in the overall immunological response which means that it is essential that any pharmacological intervention allows rapid recovery of these cytotoxic effector cells for normal immunological function.
KHYG-1 cells were washed and re-suspended in RPMI + 0.1% BSA at 4 × 10^5 cells/mL, and an amount of 50 μL of KHYG-1 cells was dispensed to each well of a 96-well V-bottom plate. RPMI (50 μL) + 0.1% BSA or 10% (final concentration) of serum was added to each well. Then test compounds were added to KHYG-1 cells at various concentrations up to 20 μM and incubated at room temperature for […]. 1 × 10^6 K562 target cells were labelled with 75 μCi ^51Cr in 200 μL of RPMI for 90 min at 37 °C. Cells were washed as described above and re-suspended in 5 mL of RPMI + 0.1% BSA. An amount of 50 μL of ^51Cr labelled K562 leukaemia target cells was added to each well of the KHYG-1 plate (effector/target 2:1) and incubated at 37 °C for 4 h. ^51Cr release was assayed using a Skatron harvesting press and radioactivity estimated on a Wallac Wizard 1470 automatic γ counter (Turku, Finland). The percentage of specific cytotoxicity was calculated using the following formula:
% specific lysis = […]
(maximum release - spontaneous release)
and expressed as the mean of triplicate assays ± standard error of the mean.

The nature of series [5]: Plasma stability, human plasma. Type of series: in vitro ADME. The following applies: % parent remaining at 24 h, 37 °C. As for the experimental part:
as §1, §2, §3, §4, §5

The text below walks through data of paper PMC4706532, “Diarylthiophenes as inhibitors of the pore-forming protein perforin” (Bioorganic & Medicinal Chemistry Letters, 2016).

One may read the melting point as the temperature of the solid-liquid transition. In general, solubility refers to the concentration that dissolves in the medium under given conditions.

In brackets after ≈: the same amount, converted by molar mass.

`CCOC(=O)c1ccc(-c2ccc(-c3ccc4c(c3)COC4=O)s2)cc1O` [Compound 40]: the melting point fell in the range of 208 to 210 °C.
`CC(C)(C)NS(=O)(=O)c1ccc(-c2ccc(-c3ccc4c(c3)COC4=O)s2)cc1` [Compound 62]: the melting point lay within 255 to 257 °C.
Compound `CNC(=O)c1ccc(-c2ccc(-c3ccc4c(c3)COC4=O)s2)cc1` [Compound 29] had a melting point of 299 to 302 °C. Further, in series [1], the “Inhibition of perforin lytic activity in Jurkat assay (in words)” value (“Inhibition of perforin lytic activity” below) is reported as “loss of efficacy”.
The matching figures for `Nc1cc(-c2ccc(-c3ccc4c(c3)COC4=O)s2)ccc1C(=O)NCCN1CCOCC1` [Compound 56]: 209 to 211 °C and “poor activity or were inactive”.
As to `CN(C)CCCNC(=O)c1ccc(-c2ccc(-c3ccc4c(c3)COC4=O)s2)cc1` [Compound 32], the melting point fell in the range of 185 to 188 °C. Also, the “Inhibition of perforin lytic activity” value in series [1] was “poor activity or were inactive”.
`O=C1OCc2cc(-c3ccc(-c4ccc(Cl)cc4)s3)ccc21` [Compound 12] showed a melting point of 231 to 234 °C.
The same measure, in the same setting: as for `COc1ccc(-c2ccc(-c3ccc4c(c3)COC4=O)s2)cc1` [Compound 15], the figure is 224 to 227 °C.
Still for that read-out and setting: as for `CSc1ccc(-c2ccc(-c3ccc4c(c3)COC4=O)s2)cc1` [Compound 58], the figure is 239 to 241 °C.
For `CN1Cc2cc(-c3ccc(-c4ccc(C(N)=O)cc4)s3)ccc2C1=O` [Compound 23b], the melting point lay within 287 to 290 °C. For the same compound, the “Inhibition of perforin lytic activity” value in series [1] is listed as “loss of activity”.
Regarding `O=C1OCc2cc(-c3ccc(-c4cccc(O)c4)s3)ccc21` [Compound 18], the melting point fell in the range of 276 to 279 °C.
Still for that read-out and setting: as for `Cc1ccccc1-c1ccc(-c2ccc3c(c2)COC3=O)s1` [Compound 7], the figure is 109 to 111 °C.
For the compound `NC(=O)c1ccc(-c2ccc(-c3ccc4c(c3)CNC4=O)s2)cc1` [Compound 23a], the “Inhibition of perforin lytic activity” value in series [1] is “loss of activity”.
Compound `O=C1OCc2cc(-c3ccc(-c4ccncc4)s3)ccc21` [Compound 70] displayed a melting point of 260 to 261 °C.
Turning to `CN1CCN(C(=O)c2ccc(-c3ccc(-c4ccc5c(c4)COC5=O)s3)cc2)CC1` [Compound 31], in series [1], the “Inhibition of perforin lytic activity” value is reported as “abolishes activity completely”.
In turn, `Cc1ccc(-c2ccc(-c3ccc4c(c3)COC4=O)s2)cc1` [Compound 9] registered a melting point of 184 to 186 °C.
`CS(=O)(=O)c1ccc(-c2ccc(-c3ccc4c(c3)COC4=O)s2)cc1` [Compound 60] returned a melting point of 278 to 280 °C.
For the compound `O=C1OCc2cc(-c3ccc(-c4ccccc4Cl)s3)ccc21` [Compound 10], the melting point fell in the range of 131 to 133 °C.
On the same count and under the same terms, to `CC(O)CNC(=O)c1ccc(-c2ccc(-c3ccc4c(c3)COC4=O)s2)cc1O` (stereo not drawn) [Compound 52] belongs 241 to 244 °C.
`O=C1OCc2cc(-c3ccc(-c4ccc(O)cc4)s3)ccc21` [Compound 19] yielded a melting point of 279 to 282 °C. Moreover, in series [1], the “Inhibition of perforin lytic activity” value was “loses all activity”.
On to `O=C1OCc2cc(-c3ccc(-c4ccccc4)s3)ccc21` [Compound 6], for which the melting point lay within 231 to 233 °C.
On to `NC(=O)c1ccc(-c2ccc(-c3ccc4c(c3)COC4=O)s2)cc1N` [Compound 55], for which the solubility in series [2] was determined as 9.4 µg/mL (≈ 26.8 µM).
In turn, `COc1cccc(-c2ccc(-c3ccc4c(c3)COC4=O)s2)c1` [Compound 14] displayed a melting point of 165 to 167 °C. Besides, the “Inhibition of perforin lytic activity” value in series [1] is on record as “no detectable inhibition”.
`CN(C)CCNC(=O)c1ccc(-c2ccc(-c3ccc4c(c3)COC4=O)s2)cc1O` [Compound 50] registered a melting point of 242 to 245 °C. For the same compound, the “Inhibition of perforin lytic activity” value in series [1] is “poor activity or were inactive”.
In turn, `NC(=O)c1cccc(-c2ccc(-c3ccc4c(c3)COC4=O)s2)c1` [Compound 22] had a melting point of 259 to 263 °C.
The compound `Cc1cccc(-c2ccc(-c3ccc4c(c3)COC4=O)s2)c1` [Compound 8] registered a melting point of 192 to 194 °C.
As for `CN(C)CCNC(=O)c1ccc(-c2ccc(-c3ccc4c(c3)COC4=O)s2)cc1N` [Compound 57], the melting point is 185 to 188 °C. Also, the “Inhibition of perforin lytic activity” value in series [1] is “poor activity or were inactive”.
In series [2], `O=C(NCCO)c1ccc(-c2ccc(-c3ccc4c(c3)COC4=O)s2)cc1O` [Compound 51] gave a solubility of 15.7 µg/mL (≈ 39.7 µM).
In turn, `N#Cc1cccc(-c2ccc(-c3ccc4c(c3)COC4=O)s2)c1` [Compound 20] showed a melting point of 250 to 251 °C. Further, the “Inhibition of perforin lytic activity” value in series [1] is “activity is lost altogether”.
`O=C1OCc2cc(-c3ccc(-c4cccc(Cl)c4)s3)ccc21` [Compound 11] displayed a melting point of 207 to 209 °C.
As to `O=C1OCc2cc(-c3ccc(-c4ccc5c(c4)COC5=O)s3)ccc21` [Compound 71], the “Inhibition of perforin lytic activity” value in series [1] is on record as “only moderately potent”. The “Solubility (in words)” value in series [2] is “extremely insoluble”.
For `NC(=O)CNC(=O)c1ccc(-c2ccc(-c3ccc4c(c3)COC4=O)s2)cc1O` [Compound 53], the solubility in series [2] was determined as 4.7 µg/mL (≈ 11.5 µM).
`CS(=O)(=O)Nc1ccc(-c2ccc(-c3ccc4c(c3)COC4=O)s2)cc1` [Compound 63]: in series [3], the “Plasma stability (% at 24 h) Mouse” value was found to be 80%. Also, the “KHYG-1 inhibition (% at 20 μM)” value in series [4] (compound 20 μM, perforin-induced lysis of K562 target cells co-incubated with KHYG-1 human NK cells, vs untreated control) is “No activity”. The “Activity against perforin delivered by whole KHYG-1 NK cells (in words)” value in series [4] (whole human NK cells, K562 targets) is on record as “poor or no activity”. For the same compound, in series [5], the “Plasma stability (% at 24 h) Human” value was determined as 70%.
In the case of `NS(=O)(=O)c1cccc(-c2ccc(-c3ccc4c(c3)COC4=O)s2)c1` [Compound 61], the melting point was 273 to 276 °C.
Take `COc1ccccc1-c1ccc(-c2ccc3c(c2)COC3=O)s1` [Compound 13]: the melting point was in the range of 190 to 192 °C. The “Inhibition of perforin lytic activity” value in series [1] is recorded as “no detectable inhibition”.
`CN(C)C(=O)c1ccc(-c2ccc(-c3ccc4c(c3)COC4=O)s2)cc1` [Compound 30] came in with a melting point of 290 to 292 °C. Further, the “Inhibition of perforin lytic activity” value in series [1] is “abolishes activity completely”.
As for `O=C(NCCN1CCOCC1)c1ccc(-c2ccc(-c3ccc4c(c3)COC4=O)s2)cc1O` [Compound 49], the “Inhibition of perforin lytic activity” value in series [1] was “poor activity or were inactive”.
